Series [1] is described as follows: Pharmacokinetics of scoparone, geniposide and rhein in rat plasma after oral administration of the herbal formula Yin-Chen-Hao-Tang (UPLC-MS/MS). In kind it is in vivo, Male Sprague Dawley rats. The procedure: All samples were subjected to chromatographic separation using the Shimadzu UPLC system with an Acquity UPLC BEH C18 column (1.7 µm, 100 mm × 2.1 mm) (Waters Corp., Milford, MA, USA). Samples were maintained in the autosampler at 4 °C with […] of each being injected into the column. Chromatographic separations were conducted at 35 °C with a flow rate of 0.2 mL/min. The mobile phase was 1 mM ammonium acetate with 0.1% formic acid and methanol. A gradient elution was used from 20% methanol (0–2 min) to 95% methanol (3–11 min) then decreased to 20% methanol at 12 min. The overall run time is 20 mins. MRM transitions were scoparone (m/z 207 → 151), geniposide (m/z 406 → 227), rhein (m/z 283 → 240) and carbamazepine (m/z 237 → 194) for quantitation. Data acquisition was controlled with LabSolutions v. 5.60 SP1 software (Shimadzu, Kyoto, Japan).
Sample preparations were made using the protein precipitation process. A forty-five-microliter aliquot of blank plasma sample was mixed with 5 µL of internal standard solution and 100 μL […] was added. The mixture was vortexed for 5 min and centrifuged at 16,000× g for 10 min at 4 °C. The supernatant layer was then collected and transferred through a 0.22 μm membrane filter (0.22 μm, Millex-GV, Millipore, USA) to 1.5 mL autosampler vials. Finally, 20 µL was used for injection into the UPLC-MS/MS system.
Male Sprague Dawley rats weighing 230 ± 30 g were used for the following pharmacokinetic (PK) study. The rats were housed under controlled environmental conditions with free access to food and drinking water up to 12 h prior to experiments. The experimental protocol was approved by the Institutional Animal Ethics Committee of National Yang-Ming University, Taipei, Taiwan (IACUC1070112). All rats divided into two experimental groups were intragastrically fed pharmaceutical herbal product formula Yin-Chen-Hao Tang suspended in normal saline at 1 g/kg or 3 g/kg corresponding to the clinical daily dose of 9.7 g and 29.2 g in a 60 kg adult. Blood samples were collected via a polyethylene tubing (PE-50) implanted priory in the jugular vein of each rat in a heparin-rinsed vial. An aliquot of 100–120 µL blood was collected at time intervals of 0, 5, 15, 30, 60, 90, 120, 180, 240, 300 and 360 min after oral administration of the herbal product. Each group contained a total of six rats to diminish individual variation. All blood samples were immediately centrifuged as mentioned above (16,000× g for 10 min at 4 °C) and stored at −20 °C until analysis.
The pharmacokinetic parameters were calculated using the pharmacokinetic software WinNonlin Standard Edition, version 1.1 (Scientific Consulting Inc., Apex, NC, USA). The area under the plasma concentration-time curve (AUC), terminal elimination half-life (t1/2) and oral clearance (CL) were estimated using non-compartmental analysis. The maximum plasma concentration (Cmax) and time to reach the maximum concentration (Tmax) was directly applied from the plasma concentration-time curve. Pharmacokinetic parameters of each individual data set were calculated using WinNonlin Standard Edition, version 1.1 (Pharsight Corp., Mountain View, CA, USA). Statistics and graphics were performed with SPSS version 18.0 (SPSS Inc., Chicago, IL, USA) and SigmaPlot 10.0 software (Systat Software Inc., San Jose, CA, USA). All values were expressed as the mean ± standard deviation (S.D.).

Details of series [2]: method as in PMID 21945452. To be noted: oral administration of 50–200 mg of rhein, healthy Chinese subjects; cited from earlier work.
The mark [3] stands for this setting: rat plasma, YCHT 3 g/kg p.o., mean ± S.D., n = 6.
Where [4] appears, read: rat plasma, YCHT 3 g/kg vs 1 g/kg p.o.
Setting [5] is: male, Sprague Dawley, rat, in vivo.
[6] abbreviates: male, Sprague Dawley, rat, in vivo, po, 1 g/kg.
The mark [7] stands for this setting: male, Sprague Dawley, rat, in vivo, po, 3 g/kg.

Where two headings read alike, the source gives them in different places.

One may read the AUC as the area under the concentration-time curve, a measure of exposure. Usually Cmax stands for the highest concentration seen after dosing. Broadly, the MRT is the average time that molecules of a dose stay in the body. By Tmax is commonly meant the time at which the peak concentration occurs.

Take `COC(=O)C1=CO[C@@H](O[C@@H]2O[C@H](CO)[C@@H](O)[C@H](O)[C@H]2O)[C@@H]2C(CO)=CC[C@H]12` [Geniposide, geniposide]: the area under the curve (AUC) in series [1] (male, Sprague Dawley, in vivo, po, rat plasma, YCHT 1 g/kg p.o., mean ± S.D., n = 6, read-out: AUC (converted)) is 313 ng·h/mL; in series [1] (male, Sprague Dawley, in vivo, po, rat plasma, YCHT 3 g/kg p.o., mean ± S.D., n = 6, read-out: AUC (converted)), 1580 ng·h/mL. Besides, the highest concentration (Cmax) in series [1] (male, Sprague Dawley, in vivo, po, rat plasma, YCHT 1 g/kg p.o., mean ± S.D., n = 6, read-out: Cmax) was 145 ± 251 ng/mL; in series [1] (male, Sprague Dawley, in vivo, po, rat plasma, YCHT 3 g/kg p.o., mean ± S.D., n = 6, read-out: Cmax) it was 604 ± 256 ng/mL. Besides, the MRT in series [1] (male, Sprague Dawley, in vivo, po, rat plasma, YCHT 1 g/kg p.o., mean ± S.D., n = 6, read-out: MRT (mean retention time) (converted)) is 1.92 h; in series [1] (male, Sprague Dawley, in vivo, po, rat plasma, YCHT 3 g/kg p.o., mean ± S.D., n = 6, read-out: MRT (mean retention time) (converted)), 2.53 h. Moreover, the Tmax in series [1] (male, Sprague Dawley, in vivo, po, rat plasma, YCHT 1 g/kg p.o., mean ± S.D., n = 6, read-out: Tmax (converted)) is 1.35 h; in series [1] (male, Sprague Dawley, in vivo, po, rat plasma, YCHT 3 g/kg p.o., mean ± S.D., n = 6, read-out: Tmax (converted)), 1.35 h. In addition, the half-life in series [1] (male, Sprague Dawley, in vivo, po, rat plasma, YCHT 1 g/kg p.o., mean ± S.D., n = 6, read-out: t1/2 (elimination half-life)) is 1.33 ± 0.3 h; in series [1] (male, Sprague Dawley, in vivo, po, rat plasma, YCHT 3 g/kg p.o., mean ± S.D., n = 6, read-out: t1/2 (elimination half-life)), 1.43 ± 0.483 h. For the same compound, the concentration at 180 min in series [1] (male, Sprague Dawley, rat, in vivo, typical plasma sample collected 180 min after oral YCHT 3 g/kg) was 287 ng/mL. Moreover, the “CL (clearance)” value in series [1] (rat plasma, YCHT 1 g/kg p.o., mean ± S.D., n = 6) worked out at 1403 ± 1018 mL/min/kg; in series [1] (setting [3]) it was 259.8 ± 109.2 mL/min/kg. Further, the AUC/dose in series [1] (setting [3]) is on record as 31.63 ± 10.76. Moreover, the “increase of AUC in the 3 g/kg group compared to the 1 g/kg group” value (“increase of AUC in the 3 g/kg group” for short) in series [1] (setting [4]) was 5.1 fold. In series [1] (setting [4]), the “ratio of AUC adjusted to the administered dose, high-dose group vs low-dose group” value (from here on “ratio of AUC adjusted”) is 1.7 times.

Turning to `O=C(O)c1cc(O)c2c(c1)C(=O)c1cccc(O)c1C2=O` [Rhein, rhein], in series [1] (setting [5]), the “increase of AUC in the 3 g/kg group” value was found to be 6.8 fold and the “ratio of AUC adjusted” value was determined as 2.3 times. Moreover, in series [1] (setting [6]), the AUC was 485 ng·h/mL, the “CL (clearance)” value was determined as 3.710 ± 1.366 mL/min/kg, the Cmax stood at 311 ± 166 ng/mL and the MRT is 1.77 h. Further, in series [1] (setting [6]), the Tmax was 0.2 h and the half-life worked out at 2.02 ± 0.767 h. Further, in series [1] (setting [7]), the exposure (AUC) is 3310 ng·h/mL, the AUC/dose is on record as 66.18 ± 17.09, the “CL (clearance)” value is 1.483 ± 0.357 mL/min/kg and the highest level (Cmax) was 1660 ± 805 ng/mL. In addition, in series [1] (setting [7]), the mean residence time (MRT) is 1.93 h, the time of peak concentration (Tmax) was 0.383 h and the half-life turned out to be 1.73 ± 1.15 h. In addition, the “pharmacokinetics, dose linearity” value in series [2] was “Linear pharmacokinetics”.

Turning to `COc1cc2ccc(=O)oc2cc1OC` [Scoparone, 6,7-dimethoxycoumarin], in series [1] (setting [5]), the “increase of AUC in the 3 g/kg group” value is 7.5 fold and the “ratio of AUC adjusted” value was 2.5 times. In series [1] (setting [6]), the exposure (AUC) is 15.9 ng·h/mL, the “CL (clearance)” value stood at 394.7 ± 209.4 mL/min/kg, the Cmax was 18 ± 12 ng/mL and the mean residence time MRT is 0.317 h. In series [1] (setting [6]), the time to peak (Tmax) was 0.233 h and the half-life is 0.433 ± 0.0833 h. In series [1] (setting [7]), the area under the curve (AUC) is 119 ng·h/mL, the AUC/dose was 2.374 ± 1.126, the “CL (clearance)” value is 131.5 ± 123.6 mL/min/kg and the peak level (Cmax) was 132 ± 137 ng/mL. In series [1] (setting [7]), the mean residence time (MRT) is 0.85 h, the Tmax is 0.35 h and the half-life came out at 1.15 ± 0.917 h.

(Values after paper PMC6222633, “Preclinical Pharmacokinetics of Scoparone, Geniposide and Rhein in an Herbal Medicine Using a Validated LC-MS/MS Method” (Molecules : A Journal of Synthetic Chemistry and Natural …, 2018).)
